These compounds were tested against full-length human BTK (Homo sapiens (Human), UniProt Q06187) (assay: BTK IC50 enzyme assay (microfluidic off-chip mobility shift kinase assay)). Settings: incubated for 90 min. at 27 C; read-out: Time Dependent BTK Enzyme Assay IC50.
Assay type: biochemical
Protocol: The following describes a microfluidic, off-chip mobility shift kinase assay used to measure inherent potency of compounds against BTK enzyme. Compounds described by embodiments of the present invention were assayed using this protocol and the data from the same is recorded in Table 2 within the column labeled: “Time Dependent BTK Enzyme Assay IC50”.
Stopped reactions were monitored at −2 PSI, −3000 V/−700 V in a LabChip 3000 plate reader from Caliper Life Sciences, a PerkinElmer Company (Hopkinton, Mass.), and the activity was measured by off-chip mobility shift assay measuring the charge/mass difference between substrate and product resulting from peptide phosphorylation. IC50 and efficacy were determined by plotting log [Inhibitor] vs. % Activity in GeneData Screener (Basel, Switzerland). […] I<1 uM and II>1 uM.

Chain of full-length human BTK (Q06187 whole entry): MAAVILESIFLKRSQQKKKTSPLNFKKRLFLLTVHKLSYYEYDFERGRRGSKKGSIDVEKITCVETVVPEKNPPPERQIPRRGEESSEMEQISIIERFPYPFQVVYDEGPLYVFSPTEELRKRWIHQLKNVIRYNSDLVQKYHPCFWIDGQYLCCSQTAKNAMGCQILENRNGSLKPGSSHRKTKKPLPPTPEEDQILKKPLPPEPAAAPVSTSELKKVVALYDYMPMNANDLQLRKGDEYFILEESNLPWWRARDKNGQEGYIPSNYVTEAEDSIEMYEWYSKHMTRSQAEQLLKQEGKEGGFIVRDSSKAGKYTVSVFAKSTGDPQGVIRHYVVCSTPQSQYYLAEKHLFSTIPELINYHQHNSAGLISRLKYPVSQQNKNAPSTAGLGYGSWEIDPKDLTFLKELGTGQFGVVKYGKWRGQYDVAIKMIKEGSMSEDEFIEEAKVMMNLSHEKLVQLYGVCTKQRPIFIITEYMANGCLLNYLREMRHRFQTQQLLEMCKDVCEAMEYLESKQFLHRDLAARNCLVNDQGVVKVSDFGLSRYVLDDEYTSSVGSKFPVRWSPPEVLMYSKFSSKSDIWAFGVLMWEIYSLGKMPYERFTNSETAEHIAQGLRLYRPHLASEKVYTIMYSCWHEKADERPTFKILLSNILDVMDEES

Q: `C=CC(=O)NCCCCNc1ncnc(N)c1-c1ccc(Oc2ccccc2)cc1` [A50, N-(4-((6-amino-5-(4-phenoxyphenyl)pyrimidin-4-yl)amino)butyl)acrylamide] was tested. Which IC50 did it give?
A: Its IC50 is under 1000 nM.

Q: For `Nc1ncnc(NCC2CCN(C(=O)C(O)CO)CC2)c1-c1ccc(Oc2ccccc2)cc1` (stereo not shown) [A56, 1-(4-(((6-amino-5-(4-phenoxyphenyl)pyrimidin-4-yl)amino)methyl)piperidin-1-yl)-2,3-dihydroxypropan-1-one], which IC50 is on record?
A: Its IC50 is over 1000 nM.

Q: For `C=CS(=O)(=O)Nc1cccc(Oc2ncnc(N)c2-c2ccc(Oc3ccccc3)cc2)c1` [A58, N-(3-((6-amino-5-(4-phenoxyphenyl)pyrimidin-4-yl)oxy)phenyl)ethenesulfonamide], which IC50 is on record?
A: The IC50 was under 100 nM.

Q: How did the IC50 turn out when `C=CC(=O)NCCCNc1ncnc(N)c1-c1ccc(Oc2ccccc2)cc1` [A59, N-(3-((6-amino-5-(4-phenoxyphenyl)pyrimidin-4-yl)amino)propyl)acrylamide] was run?
A: The IC50 was under 1000 nM.

Q: How did the IC50 turn out when `C=CC(=O)Nc1cncc(Oc2ncnc(N)c2-c2ccc(Oc3ccccc3)cc2)c1` [A60, N-(5-((6-amino-5-(4-phenoxyphenyl)pyrimidin-4-yl)oxy)pyridin-3-yl)acrylamide] was run?
A: Its IC50 is under 100 nM.

Q: `C#CC(=O)N1CC[C@H](CNc2ncnc(N)c2-c2ccc(Oc3ccccc3)cc2)C1` [A61, (R)-1-(3-(((6-amino-5-(4-phenoxyphenyl)pyrimidin-4-yl)amino)methyl)pyrrolidin-1-yl)prop-2-yn-1-one] was tested. Which IC50 did it give?
A: The IC50 was under 100 nM.

Q: For `CN(C)C/C=C/C(=O)N1CC[C@H](CNc2ncnc(N)c2-c2ccc(Oc3ccccc3)cc2)C1` [A62, (R,E)-1-(3-(((6-amino-5-(4-phenoxyphenyl)pyrimidin-4-yl)amino)methyl)pyrrolidin-1-yl)-4-(dimethylamino)but-2-en-1-one], which IC50 is on record?
A: Its IC50 is under 1000 nM.

Q: For `C=CC(=O)N1CCO[C@H](COc2ncnc(N)c2-c2ccc(Oc3ccccc3)cc2)C1` [A65, (S)-1-(2-(((6-amino-5-(4-phenoxyphenyl)pyrimidin-4-yl)oxy)methyl)morpholino)prop-2-en-1-one], which IC50 is on record?
A: The IC50 was under 100 nM.

Q: Which IC50 does the source give for `C=CC(=O)N1CCO[C@@H](COc2ncnc(N)c2-c2ccc(Oc3ccccc3)cc2)C1` [A66, (R)-1-(2-(((6-amino-5-(4-phenoxyphenyl)pyrimidin-4-yl)oxy)methyl)morpholino)prop-2-en-1-one] here?
A: Its IC50 is under 100 nM.

Q: How did the IC50 turn out when `C#CC(=O)N1C2CCC1CC(CNc1ncnc(N)c1-c1ccc(Oc3ccccc3)cc1)C2` (stereo not shown) [A68, 1-(3-(((6-amino-5-(4-phenoxyphenyl)pyrimidin-4-yl)amino)methyl)-8-azabicyclo[3.2.1]octan-8-yl)prop-2-yn-1-one] was run?
A: The IC50 was under 100 nM.

Q: For `C=CC(=O)Nc1cccc(Oc2ncnc(N)c2-c2cnn(Cc3ccc(C#N)cc3)c2)c1` [A69, N-(3-((6-amino-5-(1-(4-cyanobenzyl)-1H-pyrazol-4-yl)pyrimidin-4-yl)oxy)phenyl)acrylamide], which IC50 is on record?
A: Its IC50 is under 1000 nM.

Q: With `CN(C)C/C=C/C(=O)N1C2CCC1CC(CNc1ncnc(N)c1-c1ccc(Oc3ccccc3)cc1)C2` (stereo not shown) [A71, (E)-1-(3-(((6-amino-5-(4-phenoxyphenyl)pyrimidin-4-yl)amino)methyl)-8-azabicyclo[3.2.1]octan-8-yl)-4-(dimethylamino)but-2-en-1-one] as the compound, how does the IC50 read?
A: The IC50 was under 1000 nM.

Q: `C=CC(=O)Nc1cccc(Oc2ncnc(N)c2-c2cnn(Cc3ccc(OC)cc3)c2)c1` [A72, N-(3-((6-amino-5-(1-(4-methoxybenzyl)-1H-pyrazol-4-yl)pyrimidin-4-yl)oxy)phenyl)acrylamide] was tested. Which IC50 did it give?
A: The IC50 was under 100 nM.

Q: `CN(C)C/C=C/C(=O)N1CC[C@@H](Nc2ncnc(N)c2-c2ccc(Oc3ccccc3)cc2)C1` [A73, (R,E)-1-(3-((6-amino-5-(4-phenoxyphenyl)pyrimidin-4-yl)amino)pyrrolidin-1-yl)-4-(dimethylamino)but-2-en-1-one] was tested. Which IC50 did it give?
A: Its IC50 is under 1000 nM.

Q: For `CN(C)C/C=C/C(=O)N1CCC[C@@H](Nc2ncnc(N)c2-c2ccc(Oc3ccccc3)cc2)C1` [A74, (R,E)-1-(3-((6-amino-5-(4-phenoxyphenyl)pyrimidin-4-yl)amino)piperidin-1-yl)-4-(dimethylamino)but-2-en-1-one], which IC50 is on record?
A: Its IC50 is under 1000 nM.

Q: How did the IC50 turn out when `C=CC(=O)N1CCC(CNc2ccnc(N)c2-c2ccc(Oc3ccccc3)cc2)CC1` [A76, 1-(4-(((2-amino-3-(4-phenoxyphenyl)pyridin-4-yl)amino)methyl)piperidin-1-yl)prop-2-en-1-one] was run?
A: Its IC50 is under 1000 nM.

Q: How did the IC50 turn out when `C=CC(=O)N1CCC(CNc2ncnc(N)c2-c2ccc(F)cc2)CC1` [A77, 1-(4-(((6-amino-5-(4-fluorophenyl)pyrimidin-4-yl)amino)methyl)piperidin-1-yl)prop-2-en-1-one] was run?
A: Its IC50 is over 1000 nM.

Q: How did the IC50 turn out when `C=CC(=O)N1CCC(CNc2ncnc(N)c2-c2ccc(OC(F)(F)F)cc2)CC1` [A78, 1-(4-(((6-amino-5-(4-(trifluoromethoxy)phenyl)pyrimidin-4-yl)amino)methyl)piperidin-1-yl)prop-2-en-1-one] was run?
A: The IC50 was over 1000 nM.

Q: Which IC50 does the source give for `C=CC(=O)N1CCC(CNc2ncnc(N)c2-c2ccc(Oc3ccc(C(F)(F)F)cc3)cc2)CC1` [A79, 1-(4-(((6-amino-5-(4-(4-(trifluoromethyl)phenoxy)phenyl)pyrimidin-4-yl)amino)methyl)piperidin-1-yl)prop-2-en-1-one] here?
A: Its IC50 is under 1000 nM.

Q: For `C=CC(=O)N1CCC(CNc2ncnc(N)c2-c2ccc(Oc3ccc(F)cc3)cc2)CC1` [A80], which IC50 is on record?
A: Its IC50 is under 1000 nM.

Q: Which IC50 does the source give for `C=CC(=O)N1CCC(CNc2ncnc(N)c2-c2ccc(C(F)(F)F)cc2)CC1` [A81, 1-(4-(((6-amino-5-(4-(trifluoromethyl)phenyl)pyrimidin-4-yl)amino)methyl)piperidin-1-yl)prop-2-en-1-one] here?
A: Its IC50 is over 1000 nM.

Q: Which IC50 does the source give for `C=CC(=O)N1CCC(CNc2ncnc(N)c2-c2ccc(OC)c(OC)c2)CC1` [A82, 1-(4-(((6-amino-5-(3,4-dimethoxyphenyl)pyrimidin-4-yl)amino)methyl)piperidin-1-yl)prop-2-en-1-one] here?
A: The IC50 was over 1000 nM.

Q: How did the IC50 turn out when `C=CC(=O)N1CCC(CNc2ncnc(N)c2-c2cc(OC)c(OC)c(OC)c2)CC1` [A83, 1-(4-(((6-amino-5-(3,4,5-trimethoxyphenyl)pyrimidin-4-yl)amino)methyl)piperidin-1-yl)prop-2-en-1-one] was run?
A: Its IC50 is under 1000 nM.

Q: For `C=CC(=O)N1CCC(CNc2ncnc(N)c2-c2ccc3c(c2)OCCO3)CC1` [A84, 1-(4-(((6-amino-5-(2,3-dihydrobenzo[b][1,4]dioxin-6-yl)pyrimidin-4-yl)amino)methyl)piperidin-1-yl)prop-2-en-1-one], which IC50 is on record?
A: The IC50 was over 1000 nM.

Q: For `C=CC(=O)N1CCC(CNc2ncnc(N)c2-c2ccc(OC)cc2)CC1` [A85, 1-(4-(((6-amino-5-(4-methoxyphenyl)pyrimidin-4-yl)amino)methyl)piperidin-1-yl)prop-2-en-1-one], which IC50 is on record?
A: Its IC50 is over 1000 nM.

Q: With `C=CC(=O)N1CCC(CNc2ncnc(N)c2-c2ccc(Oc3ccc(C#N)cc3)cc2)CC1` [A86, 4-(4-(4-(((1-acryloylpiperidin-4-yl)methyl)amino)-6-aminopyrimidin-5-yl)phenoxy)benzonitrile] as the compound, how does the IC50 read?
A: The IC50 was under 1000 nM.

Q: `C=CC(=O)N1CCC(CNc2ncnc(N)c2-c2cc(F)c(Oc3ccccc3)cc2F)CC1` [A87, 1-(4-(((6-amino-5-(2,5-difluoro-4-phenoxyphenyl)pyrimidin-4-yl)amino)methyl)piperidin-1-yl)prop-2-en-1-one] was tested. Which IC50 did it give?
A: The IC50 was under 1000 nM.

Q: Which IC50 does the source give for `C=CC(=O)N1CCC(CNc2ncnc(N)c2-c2ccc(Oc3ccccc3)c(F)c2F)CC1` [A88, 1-(4-(((6-amino-5-(2,3-difluoro-4-phenoxyphenyl)pyrimidin-4-yl)amino)methyl)piperidin-1-yl)prop-2-en-1-one] here?
A: Its IC50 is under 100 nM.

Q: How did the IC50 turn out when `C=CC(=O)N1CCC2(CCN(c3ncnc(N)c3-c3ccc(Oc4ccccc4)cc3)CC2)C1` [A92, 1-(8-(6-amino-5-(4-phenoxyphenyl)pyrimidin-4-yl)-2,8-diazaspiro[4.5]decan-2-yl)prop-2-en-1-one] was run?
A: The IC50 was under 1000 nM.

Q: Which IC50 does the source give for `C=CC(=O)N1CCC2(CCN(c3ncnc(N)c3-c3ccc(Oc4ccccc4)cc3)C2)C1` (stereo not shown) [A93, 1-(7-(6-amino-5-(4-phenoxyphenyl)pyrimidin-4-yl)-2,7-diazaspiro[4.4]nonan-2-yl)prop-2-en-1-one] here?
A: Its IC50 is under 1000 nM.

Q: Which IC50 does the source give for `C=CC(=O)N1CCC(CNc2ncnc(N)c2-c2ccc(Oc3ccc(O)cc3)cc2)CC1` [A94, 1-(4-(((6-amino-5-(4-(4-hydroxyphenoxy)phenyl)pyrimidin-4-yl)amino)methyl)piperidin-1-yl)prop-2-en-1-one] here?
A: The IC50 was over 1000 nM.

Q: For `C=CC(=O)N1CCC(CNc2ncnc(N)c2-c2ccc(Oc3cccc(C(F)(F)F)c3)cc2)CC1` [A95, 1-(4-(((6-amino-5-(4-(3-(trifluoromethyl)phenoxy)phenyl)pyrimidin-4-yl)amino)methyl)piperidin-1-yl)prop-2-en-1-one], which IC50 is on record?
A: Its IC50 is under 100 nM.

Q: With `C=CC(=O)N1CCC(CNc2ncnc(N)c2-c2ccc(Oc3cccnc3)cc2)CC1` [A96, 1-(4-(((6-amino-5-(4-(pyridin-3-yloxy)phenyl)pyrimidin-4-yl)amino)methyl)piperidin-1-yl)prop-2-en-1-one] as the compound, how does the IC50 read?
A: The IC50 was under 1000 nM.

Q: Which IC50 does the source give for `C=CC(=O)N1CCC(CNc2ncnc(N)c2-c2ccc(Oc3ccncc3)cc2)CC1` [A97, 1-(4-(((6-amino-5-(4-(pyridin-4-yloxy)phenyl)pyrimidin-4-yl)amino)methyl)piperidin-1-yl)prop-2-en-1-one] here?
A: Its IC50 is under 1000 nM.

Q: How did the IC50 turn out when `C=CC(=O)N1CCC(CNc2ncnc(N)c2-c2ccc(Oc3ccc(C)cc3)cc2)CC1` [A98] was run?
A: Its IC50 is under 100 nM.

Q: Which IC50 does the source give for `C=CC(=O)N1CCC(CNc2ncnc(N)c2-c2ccc(OC3CCCCC3)cc2)CC1` [A99, 1-(4-(((6-amino-5-(4-(cyclohexyloxy)phenyl)pyrimidin-4-yl)amino)methyl)piperidin-1-yl)prop-2-en-1-one] here?
A: Its IC50 is under 1000 nM.

Q: With `CN(C)C/C=C/C(=O)N1CC2(CC(Oc3ncnc(N)c3Cl)C2)C1` [A102, (E)-1-(6-((6-amino-5-chloropyrimidin-4-yl)oxy)-2-azaspiro[3.3]heptan-2-yl)-4-(dimethylamino)but-2-en-1-one] as the compound, how does the IC50 read?
A: The IC50 was over 1000 nM.
